In ChEMBL document CHEMBL1125830, “Phosphonate-containing inhibitors of tyrosine-specific protein kinases” (J Med Chem, 1991):

Key:
[1] = target: Epidermal growth factor receptor (Homo sapiens, UniProt P00533); experiment: Inhibition of Epidermal growth factor receptor autophosphorylation in A431 cell membranes
[2] = target: Insulin receptor (Homo sapiens, UniProt P06213); experiment: Inhibition of insulin receptor autophosphorylation
Sequence of Insulin receptor (P06213 28-758 limits assumed): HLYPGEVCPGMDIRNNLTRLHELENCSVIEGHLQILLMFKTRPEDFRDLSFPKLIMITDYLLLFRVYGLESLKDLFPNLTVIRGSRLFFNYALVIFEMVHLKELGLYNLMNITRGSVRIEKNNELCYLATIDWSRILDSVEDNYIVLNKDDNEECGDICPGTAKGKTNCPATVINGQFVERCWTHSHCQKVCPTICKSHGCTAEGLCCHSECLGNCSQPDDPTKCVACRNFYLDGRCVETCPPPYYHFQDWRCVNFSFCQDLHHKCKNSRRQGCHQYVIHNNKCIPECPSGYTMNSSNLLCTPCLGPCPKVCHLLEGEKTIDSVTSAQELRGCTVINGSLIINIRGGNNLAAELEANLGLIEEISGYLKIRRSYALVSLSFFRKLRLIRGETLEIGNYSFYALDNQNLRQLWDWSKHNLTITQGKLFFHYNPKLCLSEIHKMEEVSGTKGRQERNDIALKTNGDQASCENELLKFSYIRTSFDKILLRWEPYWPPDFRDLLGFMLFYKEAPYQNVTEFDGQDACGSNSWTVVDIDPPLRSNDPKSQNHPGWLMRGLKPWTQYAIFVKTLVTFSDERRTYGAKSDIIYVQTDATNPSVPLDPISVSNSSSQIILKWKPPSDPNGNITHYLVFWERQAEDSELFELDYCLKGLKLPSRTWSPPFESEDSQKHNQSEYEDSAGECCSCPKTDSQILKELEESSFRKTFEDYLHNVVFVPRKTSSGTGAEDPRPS
Sequence of Insulin receptor (P06213 763-1382 limits assumed): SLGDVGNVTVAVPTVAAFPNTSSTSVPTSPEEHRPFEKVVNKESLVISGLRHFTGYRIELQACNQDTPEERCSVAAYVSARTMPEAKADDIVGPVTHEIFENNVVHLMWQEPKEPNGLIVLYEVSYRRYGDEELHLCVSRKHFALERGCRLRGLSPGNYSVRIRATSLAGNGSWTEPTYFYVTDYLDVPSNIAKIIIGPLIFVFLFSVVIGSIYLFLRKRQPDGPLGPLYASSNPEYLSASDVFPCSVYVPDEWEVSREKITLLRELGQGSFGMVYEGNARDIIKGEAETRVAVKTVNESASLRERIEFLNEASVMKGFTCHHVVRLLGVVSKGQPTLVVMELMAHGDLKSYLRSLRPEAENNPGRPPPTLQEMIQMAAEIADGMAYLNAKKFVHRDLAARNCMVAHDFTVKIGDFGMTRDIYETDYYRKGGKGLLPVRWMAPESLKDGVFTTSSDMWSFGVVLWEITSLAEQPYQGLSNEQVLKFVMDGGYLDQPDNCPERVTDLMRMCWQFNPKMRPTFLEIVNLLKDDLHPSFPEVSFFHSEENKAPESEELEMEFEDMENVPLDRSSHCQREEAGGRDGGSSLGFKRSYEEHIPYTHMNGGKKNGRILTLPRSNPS

Sequence of Epidermal growth factor receptor (P00533 whole entry): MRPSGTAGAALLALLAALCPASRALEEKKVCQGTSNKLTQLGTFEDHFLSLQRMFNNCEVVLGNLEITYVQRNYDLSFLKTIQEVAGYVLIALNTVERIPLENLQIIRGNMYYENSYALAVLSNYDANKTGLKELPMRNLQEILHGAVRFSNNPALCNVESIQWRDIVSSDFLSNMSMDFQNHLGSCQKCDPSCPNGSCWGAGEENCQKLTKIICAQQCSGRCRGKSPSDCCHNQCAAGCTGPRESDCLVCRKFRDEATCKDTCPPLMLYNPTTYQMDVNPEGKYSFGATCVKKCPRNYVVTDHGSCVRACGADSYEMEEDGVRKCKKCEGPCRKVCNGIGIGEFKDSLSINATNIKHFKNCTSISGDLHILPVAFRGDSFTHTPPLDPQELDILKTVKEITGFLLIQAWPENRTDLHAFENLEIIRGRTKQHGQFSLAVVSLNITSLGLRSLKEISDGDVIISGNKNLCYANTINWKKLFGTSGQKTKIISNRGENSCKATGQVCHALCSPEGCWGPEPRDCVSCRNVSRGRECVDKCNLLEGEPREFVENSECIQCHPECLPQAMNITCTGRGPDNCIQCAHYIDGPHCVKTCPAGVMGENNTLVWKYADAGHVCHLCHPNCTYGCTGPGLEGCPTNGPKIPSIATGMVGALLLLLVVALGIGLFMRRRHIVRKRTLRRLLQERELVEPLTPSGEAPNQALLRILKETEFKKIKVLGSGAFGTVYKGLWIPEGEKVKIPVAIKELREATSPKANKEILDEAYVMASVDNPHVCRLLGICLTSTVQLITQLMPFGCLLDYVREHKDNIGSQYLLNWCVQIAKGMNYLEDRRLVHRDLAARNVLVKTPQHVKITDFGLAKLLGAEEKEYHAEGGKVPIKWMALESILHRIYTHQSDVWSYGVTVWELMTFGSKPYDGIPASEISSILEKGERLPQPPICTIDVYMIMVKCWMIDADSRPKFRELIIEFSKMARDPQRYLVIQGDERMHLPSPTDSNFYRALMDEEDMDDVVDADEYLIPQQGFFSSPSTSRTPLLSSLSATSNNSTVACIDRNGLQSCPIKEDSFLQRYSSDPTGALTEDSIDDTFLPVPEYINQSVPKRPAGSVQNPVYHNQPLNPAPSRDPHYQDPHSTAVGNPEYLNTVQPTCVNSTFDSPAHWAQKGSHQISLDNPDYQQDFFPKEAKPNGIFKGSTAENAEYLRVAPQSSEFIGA

O=P(O)(O)C(O)c1ccc2ccccc2c1 (configuration not stated)
IC50 [1]: 250 µM | IC50 [2]: 200 µM
